Results on one compound are retold here after ChEMBL document CHEMBL4418486, “Heterocyclic compounds for the inhibition of pask” (2015).

One may read the half-life as how long it takes for the measured level to halve. A lower half-life goes with rapid decline.

A short description of the series: Half life in Sprague-Dawley rat at 10 mg/kg, po measured after 0.083 to 24 hrs post dose by LC/MS/MS analysis. The note with it: in vivo. It is filed as ADME, organism-based.

`CCn1ncc2cc(-c3cc(=O)n4ncc(-c5nc(C)no5)c4[nH]3)ccc21` had a half-life of 3.55 h.
